# Legend:
# [1] = tested on: patients with stable type 2 diabetes and hypertension; test: Open-label Phase 2a trial of escalating doses (NCT02906579), metabolic assessments and tolerability; assay type: in vivo, human; conditions: for Change Serum Insulin, Mean / Change Serum Insulin, Median: fasting
# Description: The primary objectives of this clinical study (ClinicalTrials.gov Identifier: NCT02906579) were to assess the acute effects of escalating doses of Compound I on endothelial function (using EndoPAT™—Itamar Medical; Caesarea, Israel- to measure fingertip small vessel pulse volume), blood pressure, heart rate/pulse, safety and tolerability in patients with Type 2 diabetes and a history of hypertension. Patients in this trial were on stable medications for glucose control (blood glucose lowering medication) and hypertension (including an ARB or an ACEi). Secondary measurements included assessment of fasting glucose levels, fasting insulin levels, hemoglobin A1C (HbA1C) levels, serum cholesterol levels, serum triglyceride levels, BMI and body weight.
# Allocation: non-randomized; Intervention Model: single group assignment; Masking: non (open-label), Primary purpose: treatment. Single cohort of 11 patients confined to unit. Single clinical site.
# Clinic Period: The Clinic Period began at Check-in on Day-1 and ended at Discharge on Day 19. Patients who met eligibility criteria based on Screening Visit assessments were admitted to the Study Center on Day-1 for procedures to confirm eligibility and were confined to the Study Center until Discharge on Day 19. Patients received a standard diet for diabetics. On Days 1 to 18, following an overnight fast of ≥8 hours, eligible patients received once-daily study drug. Safety (adverse event [AE] collection, vital signs, fasting glucose, serum insulin, electro cardiograms [ECGs]) and pharmacokinetic (PK) assessments, including blood collections, were performed at pre-specified times daily (see Schedule of Events). Pharmacodynamic assessments was performed on a 3-day cycle that repeated for each of the 6 dosing cycles (see FIG. 29 and Schedule of Events): the first day included supine and standing cuff BP and pulse measurements; the second day include ambulatory BP monitoring (ABPM), and the third day will include EndoPAT assessments of endothelial function. In addition, blood samples were collected for optional determination of exploratory biomarkers, including metabolic markers associated with metabolic syndrome (see Schedule of Events). On Day 19, after assessments were completed, patients were discharged from the Study Center at the Investigator's discretion. Patients were rescreened should they discontinue in the Screening Period due to visit window deviations or other administrative reasons. In addition, laboratory values, ECG values, or BPs that were outside the range specified in the protocol were repeated to confirm eligibility during the screening period at the Investigator's discretion after consultation with the Medical Monitor.
# Escalating single doses (in 3-day cycles) of 10, 20, 30, 40 or 50 mg of Compound I. Compound I has previously been described in WO2014144100. Metabolic parameters, including fasting serum glucose levels, fasting serum insulin levels, hemoglobin A1C (HhA1C) levels, serum lipid levels and body weight, were determined on the second day of each 3-day cycle.
# Fasting glucose (mg/dL) was measured in serum both enzymatically. Insulin (pmol/L) was measured by ECLIA. Cholesterol (mg/dL) was measured enzymatically. Triglycerides (mg/dL) were measured enzymatically. HbA1c (%) was measured using Roche Tina Quant.
# Compound I was administered as multiples of a 5-mg oral tablet dosage form. Placebo was administered as multiples of a 5 mg tablet. Compound I was formulated as a spray dried dispersion formulation as described in WO2017095697.
# Patients received orally administered study drug at approximately the same time (±15 minutes) every day in the morning (8 to 10 AM), after an overnight fast of at least 8 hours. Patients took multiple tablets together as needed to complete the total dose. […]
# [2] = tested on: obese/high fat diet C57Bl/6J mice; test: DIO mouse model: oral glucose tolerance test; assay type: in vivo; conditions: DIO HFD mice, approx 6 mg/kg in diet, week 4
# Description: The objective of this animal study was to evaluate the effects of Compound I in the mouse diet induced obesity (DIO) model. Assessments included body weight, food intake, oral glucose tolerance test (OGTT) and fasting plasma biomarkers of metabolic control.
# Male C57Bl/6J mice with baseline body weights of 25.0-29.0 grams (lean controls) and 31.5-45.0 grams (obese/high fat diet treated) respectively, were used for this study. The lean mice (n=8) were maintained on a standard chow diet. The obese mice were given 60% high fat diet (HFD) starting at 6 weeks of age. All animals were allowed free access to drinking water and chow. The study was begun when the mice were 12 weeks of age and concluded after 4 weeks (16 weeks of age). The obese control group (n=8 mice) was maintained on HFD. The Compound I group (n=8 obese mice) was treated with HFD containing 90 mg Compound I/kg (an approximate dose of 6 mg/kg). Body weights were determined twice weekly and food intake was measured daily for 28 days. An OGTT was performed on each animal at day 28 or 29 and the animals were sacrificed on the following day. On the terminal day, 3 hour fasted blood was collected for compound concentrations and plasma biomarkers analysis including glucose, insulin and triglycerides. Organs were collected, weighed and snap frozen in liquid nitrogen for further analysis.
# [3] = after escalation 10 to 50 mg over 15 days
smiles,measurement,setting,value
OC(CNc1nc(-c2cc(-c3ccon3)n(Cc3ccccc3F)n2)ncc1F)(C(F)(F)F)C(F)(F)F [Compound I],"Change Serum Insulin, Mean",[1]; 10 mg once daily cycle,0.2 µIU/mL
same,"Change Serum Insulin, Median",[1]; 10 mg once daily cycle,-0.5 µIU/mL
same,"Change Serum Insulin, Mean",[1]; 20 mg once daily cycle,-0.4 µIU/mL
same,"Change Serum Insulin, Median",[1]; 20 mg once daily cycle,0.1 µIU/mL
same,"Change Serum Insulin, Mean",[1]; 30 mg once daily cycle,-2.61 µIU/mL
same,"Change Serum Insulin, Median",[1]; 30 mg once daily cycle,-2 µIU/mL
same,"Change Serum Insulin, Mean",[1]; 40 mg once daily cycle,-2.49 µIU/mL
same,"Change Serum Insulin, Median",[1]; 40 mg once daily cycle,-1.9 µIU/mL
same,"Change Serum Insulin, Mean",[1]; 50 mg once daily cycle,-2.7 µIU/mL
same,"Change Serum Insulin, Median",[1]; 50 mg once daily cycle,-0.7 µIU/mL
same,reduction in mean fasting glucose level between placebo cycle (day 2) and end of treatment,"[1]; after escalation 10, 20, 30, 40, 50 mg single oral daily dose",20%
same,reduction in mean cholesterol level between baseline (day-1) and end of treatment,[1]; [3],23%
same,reduction in serum TGs between day-1 (baseline) and day 19,[1]; [3],about 12%
same,mean reduction of body weight,[1]; by end of treatment day 19,about 3.5 kg
same,mean serum TG level,[1]; day 19,122 mg/dL
same,mean serum cholesterol level,[1]; day 19,142 mg/dL
same,Mean fasting glucose level,[1]; day 19 (end of treatment) after escalation 10 to 50 mg once daily,114 mg/dL
same,HbA1C mean reduction from baseline,"[1]; day 19, actual HbA1C reading",0.40%
same,mean body weight relative to baseline (day-1),"[1]; each dosage 10 to 50 mg, cumulative over dose escalation",decreased for all dosages
same,change between mean serum cholesterol value on day 19 (end of treatment) and day 32,[1]; follow-up after end of dosing,+43.3 mg/dL
same,tolerability,[1]; multiple dose escalation 10 to 50 mg once daily,well tolerated
same,Fasting blood glucose,[2],not reduced
same,OGTT area above baseline change vs obese controls,[2]; P<0.05,−47%
same,OGTT area under the curve change vs obese controls,[2]; P<0.05,−22%
same,blood glucose excursion in OGTT vs obese controls,[2]; from 30 to 120 minutes,significant reductions

# Reference: US11389449B2, “Treatment of metabolic syndrome with an sGC stimulator” (Cyclerion Therapeutics, Inc., priority 2017, dated 2022)
